From patent US7592336B2, “Hepatitis C virus inhibitors” (Bristol-Myers Squibb Company, priority 2005, dated 2009) come the findings set out here.

Bounds are passed on as bounds.

The subject of assay [1] is HCV replicon in HUH-7 cells. The assay can be described thus: HCV replicon FRET assay. Type of assay: cell-based, HCV strain 1b. As to conditions: Hepatitis C virus, Huh-7; HCV replicon cell assay; read-out: Activity Range (EC50). The source says: An HCV replicon whole cell system was established as described by Lohmann V, Korner F, Koch J, Herian U, Theilmann L, Bartenschlager R., Science 285(5424):110-3 (1999). This system enabled us to evaluate the effects of our HCV Protease compounds on HCV RNA replication. Briefly, using the HCV strain 1b sequence described in the Lohmann paper (Assession number: AJ238799), an HCV cDNA was synthesized by Operon Technologies, Inc. (Alameda, Calif.), and the full-length replicon was then assembled in plasmid pGem9zf(+) (Promega, Madison, Wis.) using standard molecular biology techniques. The replicon consists of (i) the HCV 5′ UTR fused to the first 12 amino acids of the capsid protein, (ii) the neomycin phosphotransferase gene (neo), (iii) the IRES from encephalomyocarditis virus (EMCV), and (iv) HCV NS3 to NS5B genes and the HCV 3′ UTR. Plasmid DNAs were linearized with ScaI and RNA transcripts were synthesized in vitro using the T7 MegaScript transcription kit (Ambion, Austin, Tex.) according to manufacturer's directions. In vitro transcripts of the cDNA were transfected into the human hepatoma cell line, HUH-7. […] Resulting cell lines were characterized for positive and negative strand RNA production and protein production over time.
The HCV replicon FRET assay was developed to monitor the inhibitory effects of compounds described in the disclosure on HCV viral replication. HUH-7 cells, constitutively expressing the HCV replicon, were grown in Dulbecco's Modified Eagle Media (DMEM) (Gibco-BRL) containing 10% Fetal calf serum (FCS) (Sigma) and 1 mg/ml G418 (Gibco-BRL). Cells were seeded the night before (1.5×10^4 cells/well) in 96-well tissue-culture sterile plates. Compound and no compound controls were prepared in DMEM containing 4% FCS, 1:100 Penicillin/Streptomysin (Gibco-BRL), 1:100 L-glutamine and 5% DMSO in the dilution plate (0.5% DMSO final concentration in the assay). Compound/DMSO mixes were added to the cells and incubated for 4 days at 37° C. After 4 days, cells were first assessed for cytotoxicity using alamar Blue (Trek Diagnotstic Systems) for a CC50 reading. The toxicity of compound (CC50) was determined by adding 1/10th volume of alamar Blue to the media incubating the cells. After 4 h, the fluorescence signal from each well was read, with an excitation wavelength at 530 nm and an emission wavelength of 580 nm, using the Cytofluor Series 4000 (Perspective Biosystems). Plates were then rinsed thoroughly with Phosphate-Buffered Saline (PBS) (3 times 150 μl). The cells were lysed with 25 μl of a lysis assay reagent containing an HCV protease substrate (5× cell Luciferase cell culture lysis reagent (Promega #E153A) diluted to 1× with distilled water, NaCl added to 150 mM final, the FRET peptide substrate (as described for the enzyme assay above) diluted to 10 μM final from a 2 mM stock in 100% DMSO. […]. The plate was then placed into the Cytofluor 4000 instrument which had been set to 340 nm excitation/490 nm emission, automatic mode for 21 cycles and the plate read in a kinetic mode. EC50 determinations were carried out as described for the IC50 determinations.
On the technique in general: A replicon is a self-replicating genome or part of one, used to study replication in cells.

For assay [2], the target named is T1, HCV NS3/4A protease complex, BMS strain (UniProt P27958, species not given/STRAIN_BMS).
T1 construct: said of H77 and J4L6S, not expressly of BMS; fused on or other part: A three-lysine solubilising tail at the NS4A C-terminus and purification on Ni-NTA are described for the H77 and J4L6S constructs
T1 sequence (P27958 1027-1657, change not shown, one chain of several): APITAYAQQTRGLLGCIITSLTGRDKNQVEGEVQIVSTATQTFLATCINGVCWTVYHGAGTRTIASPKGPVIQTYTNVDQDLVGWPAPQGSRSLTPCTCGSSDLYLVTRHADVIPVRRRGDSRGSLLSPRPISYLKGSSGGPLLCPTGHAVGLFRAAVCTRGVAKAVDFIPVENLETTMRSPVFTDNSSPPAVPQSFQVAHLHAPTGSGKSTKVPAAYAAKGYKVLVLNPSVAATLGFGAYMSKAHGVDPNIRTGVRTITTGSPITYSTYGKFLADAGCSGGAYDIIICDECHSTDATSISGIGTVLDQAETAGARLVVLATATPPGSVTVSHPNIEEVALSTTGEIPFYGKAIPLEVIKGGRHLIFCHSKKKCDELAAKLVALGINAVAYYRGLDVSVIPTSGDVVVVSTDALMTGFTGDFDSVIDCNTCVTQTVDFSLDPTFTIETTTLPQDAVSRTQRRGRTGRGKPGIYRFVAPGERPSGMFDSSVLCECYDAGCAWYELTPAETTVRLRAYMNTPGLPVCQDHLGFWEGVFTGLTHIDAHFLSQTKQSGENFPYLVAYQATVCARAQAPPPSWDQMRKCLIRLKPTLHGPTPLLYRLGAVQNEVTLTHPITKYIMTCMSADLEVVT
The assay can be described thus: FRET peptide assay to monitor HCV NS3/4A proteolytic activity (BMS strain). Type of assay: biochemical, HCV genotype 1a. The conditions noted are these: NS3/4A BMS strain; read-out: Activity Range (IC50). The source says:
HCV NS3 protease complexes, derived from the BMS strain, H77 strain or J4L6S strain, were generated, as described below. These purified recombinant proteins were generated for use in a homogeneous assay (see below) to provide an indication of how effective compounds of the present disclosure would be in inhibiting HCV NS3 proteolytic activity.
Serum from an HCV-infected patient was obtained from Dr. T. Wright, San Francisco Hospital. An engineered full-length cDNA (compliment deoxyribonucleic acid) template of the HCV genome (BMS strain) was constructed from DNA fragments obtained by reverse transcription-PCR (RT-PCR) of serum RNA (ribonucleic acid) and using primers selected on the basis of homology between other genotype 1a strains. From the determination of the entire genome sequence, a genotype 1a was assigned to the HCV isolate according to the classification of Simmonds et al. (See P Simmonds, K A Rose, S Graham, S W Chan, F McOmish, B C Dow, E A Follett, P L Yap and H Marsden, J. Clin. Microbiol., 31(6), 1493-1503 (1993)). […] The infectious clones, H77 (1a genotype) and J4L6S (1b genotype) were obtained from R. Purcell (NIH) and the sequences are published in Genbank (AAB67036, see Yanagi, M., Purcell, R. H., Emerson, S. U. and Bukh, J. Proc. Natl. Acad. Sci. U.S.A. 94(16), 8738-8743 (1997); AF054247, see Yanagi, M., St Claire, M., Shapiro, M., Emerson, S. U., Purcell, R. H. and Bukh, J, Virology 244 (1), 161-172. (1998)).
NS3/4A protease complex-containing fractions were pooled and loaded on a desalting column Superdex-S200 pre-equilibrated with buffer D (25 mM HEPES, pH 7.5, 20% glycerol, 300 mM NaCl, 0.2% Triton X-100, 10 mM βME). Sample was loaded at a flow rate of 1 mL/min. NS3/4A protease complex-containing fractions were pooled and concentrated to approximately 0.5 mg/ml. The purity of the NS3/4A protease complexes, derived from the BMS, H77 and J4L6S strains, were judged to be greater than 90% by SDS-PAGE and mass spectrometry analyses. The enzyme was stored at −80° C., thawed on ice and diluted prior to use in assay buffer.
The purpose of this in vitro assay was to measure the inhibition of HCV NS3 protease complexes, derived from the BMS strain, H77 strain or J4L6S strain, as described above, by compounds of the present disclosure. This assay provides an indication of how effective compounds of the present disclosure would be in inhibiting HCV NS3 proteolytic activity.
In order to monitor HCV NS3/4A protease activity, an NS3/4A peptide substrate was used. The substrate was RET S1 (Resonance Energy Transfer Depsipeptide Substrate; AnaSpec, Inc. cat #22991) (FRET peptide), described by Taliani et al. in Anal. Biochem. 240(2):60-67 (1996). The sequence of this peptide is loosely based on the NS4A/NS4B natural cleavage site for the HCV NS3 protease except there is an ester linkage rather than an amide bond at the cleavage site. The peptide also contains a fluorescence donor, EDANS, near one end of the peptide and an acceptor, DABCYL, near the other end. The fluorescence of the peptide is quenched by […] resonance energy transfer (RET) between the donor and the acceptor, but as the NS3 protease cleaves the peptide the products are released from RET quenching and the fluorescence of the donor becomes apparent.
The peptide substrate was incubated with one of the three recombinant NS3/4A protease complexes, in the absence or presence of a compound of the present disclosure. The inhibitory effects of a compound were determined by monitoring the formation of fluorescent reaction product in real time using a Cytofluor Series 4000.
Assay buffer: 50 mM HEPES, pH 7.5; 0.15M NaCl; 0.1% Triton; 15% Glycerol; 10 mM βME. Substrate: 2 μM final concentration (from a 2 mM stock solution in DMSO stored at −20° C.). HCV NS3/4A protease type 1a (1b), 2-3 nM final concentration (from a 5 μM stock solution in 25 mM HEPES, pH 7.5, 20% glycerol, 300 mM NaCl, 0.2% Triton-X100, 10 mM βME). […]

Regarding `C=C[C@@H]1C[C@]1(NC(=O)[C@@H]1C[C@@](O)(c2ccc(C)c(F)c2)CN1C(=O)[C@@H](NC(=O)OC(C)(C)C)C(C)(C)C)C(=O)NS(=O)(=O)C1CC1` [Compound 23], in assay [1], the EC50 (in general, the concentration giving half of the maximal effect) lay in the range of 1000 to 10000 nM. For the same compound, the IC50 (as a rule, the concentration that gives 50% inhibition) in assay [2] was in the range of 100 to 1000 nM.
For `C=C[C@@H]1C[C@]1(NC(=O)[C@@H]1C[C@@H](c2ccccc2)CN1C(=O)[C@@H](NC(=O)OC(C)(C)C)C(C)(C)C)C(=O)NS(=O)(=O)C1CC1` [Compound 1], the EC50 in assay [1] fell in the range of 1000 to 10000 nM. Also, the IC50 in assay [2] is 100 to 1000 nM.
Turning to `C=C[C@@H]1C[C@]1(NC(=O)[C@@H]1C[C@@](O)(c2cccc(CN3CCCC3)c2)CN1C(=O)[C@@H](NC(=O)OC(C)(C)C)C(C)(C)C)C(=O)NS(=O)(=O)C1CC1` [Compound 17], the EC50 in assay [1] is greater than 10000 nM. The IC50 in assay [2] is 100 to 1000 nM.
For `C=C[C@@H]1C[C@]1(NC(=O)[C@@H]1C[C@@](O)(c2ccccc2)CN1C(=O)[C@@H](NC(=O)OC(C)(C)C)C(C)(C)C)C(=O)NS(=O)(=O)C1CC1` [Compound 4] the same measures were 1000 to 10000 nM and 100 to 1000 nM.
For `C=C[C@@H]1C[C@]1(NC(=O)[C@@H]1C[C@@](O)(c2ccc(F)c(C)c2)CN1C(=O)[C@@H](NC(=O)OC(C)(C)C)C(C)(C)C)C(=O)NS(=O)(=O)C1CC1` [Compound 22] the same measures were 1000 to 10000 nM and 100 to 1000 nM.
For `C=C[C@@H]1C[C@]1(NC(=O)[C@@H]1C[C@@](O)(c2cc(C)cc(C)c2)CN1C(=O)[C@@H](NC(=O)OC(C)(C)C)C(C)(C)C)C(=O)NS(=O)(=O)C1CC1` [Compound 21] the same measures were 1000 to 10000 nM and 1 to 100 nM.
For `C=C[C@@H]1C[C@]1(NC(=O)[C@@H]1C[C@@](O)(c2cccc(N(C)C)c2)CN1C(=O)[C@@H](NC(=O)OC(C)(C)C)C(C)(C)C)C(=O)NS(=O)(=O)C1CC1` [Compound 16], the EC50 in assay [1] was greater than 10000 nM. Further, in assay [2], the 50% inhibitory concentration (IC50) lay within 100 to 1000 nM.
For `C=C[C@@H]1C[C@]1(NC(=O)[C@@H]1C[C@@H](Cc2ccccc2)CN1C(=O)[C@@H](NC(=O)OC(C)(C)C)C(C)(C)C)C(=O)NS(=O)(=O)C1CC1` [Compound 2] the same measures were greater than 10000 nM and greater than 1000 nM.
For `C=C[C@@H]1C[C@]1(NC(=O)[C@@H]1C[C@@](O)(c2cccc(CN3CCCCC3)c2)CN1C(=O)[C@@H](NC(=O)OC(C)(C)C)C(C)(C)C)C(=O)NS(=O)(=O)C1CC1` [Compound 18] the same measures were greater than 10000 nM and 100 to 1000 nM.
In the case of `C=C[C@@H]1C[C@]1(NC(=O)[C@@H]1C[C@@](O)(c2ccccc2CN2CCOCC2)CN1C(=O)[C@@H](NC(=O)OC(C)(C)C)C(C)(C)C)C(=O)NS(=O)(=O)C1CC1` [Compound 20], the EC50 in assay [1] was in the range of 1000 to 10000 nM. Besides, the IC50 in assay [2] fell in the range of 100 to 1000 nM.
For `C=C[C@@H]1C[C@]1(NC(=O)[C@@H]1C[C@@](O)(c2ccc(OC)cc2)CN1C(=O)[C@@H](NC(=O)OC(C)(C)C)C(C)(C)C)C(=O)NS(=O)(=O)C1CC1` [Compound 7] the same measures were 1000 to 10000 nM and 100 to 1000 nM.
For `C=C[C@@H]1C[C@]1(NC(=O)[C@@H]1C[C@@](O)(c2cccc(-c3ccc(OC)cc3)c2)CN1C(=O)[C@@H](NC(=O)OC(C)(C)C)C(C)(C)C)C(=O)NS(=O)(=O)C1CC1` [Compound 8], in assay [1], the EC50 lay in the range of 1000 to 10000 nM. Also, the half-maximal inhibitory concentration (IC50) in assay [2] lay in the range of 100 to 1000 nM.
The like results for `C=C[C@@H]1C[C@]1(NC(=O)[C@@H]1C[C@@](O)(c2cccc(Cl)c2)CN1C(=O)[C@@H](NC(=O)OC(C)(C)C)C(C)(C)C)C(=O)NS(=O)(=O)C1CC1` [Compound 12] were, in that order, 1000 to 10000 nM and 1 to 100 nM.
Take `C=C[C@@H]1C[C@]1(NC(=O)[C@@H]1C[C@@](O)(c2cccc(CN3CCOCC3)c2)CN1C(=O)[C@@H](NC(=O)OC(C)(C)C)C(C)(C)C)C(=O)NS(=O)(=O)C1CC1` [Compound 19]: in assay [1], the EC50 was greater than 10000 nM. The 50% inhibitory concentration (IC50) in assay [2] lay within 100 to 1000 nM.
The like results for `C=CC[C@]1(O)C[C@@H](C(=O)N[C@]2(C(=O)NS(=O)(=O)C3CC3)C[C@H]2C=C)N(C(=O)[C@@H](NC(=O)OC(C)(C)C)C(C)(C)C)C1` [Compound 9] were, in that order, greater than 10000 nM and greater than 1000 nM.
The like results for `C=C[C@@H]1C[C@]1(NC(=O)[C@@H]1C[C@@](O)(c2cccc(OC(C)C)c2)CN1C(=O)[C@@H](NC(=O)OC(C)(C)C)C(C)(C)C)C(=O)NS(=O)(=O)C1CC1` [Compound 15] were, in that order, 1000 to 10000 nM and 100 to 1000 nM.
`C=C[C@@H]1C[C@]1(NC(=O)[C@@H]1C[C@@](O)(c2cccc(C(C)C)c2)CN1C(=O)[C@@H](NC(=O)OC(C)(C)C)C(C)(C)C)C(=O)NS(=O)(=O)C1CC1` [Compound 14]: the EC50 in assay [1] lay in the range of 1000 to 10000 nM. Moreover, in assay [2], the IC50 lay in the range of 100 to 1000 nM.
For `C=C[C@@H]1C[C@]1(NC(=O)[C@@H]1C[C@@](O)(c2cc(C)ccc2C)CN1C(=O)[C@@H](NC(=O)OC(C)(C)C)C(C)(C)C)C(=O)NS(=O)(=O)C1CC1` [Compound 24] the same measures were 1000 to 10000 nM and 100 to 1000 nM.
